Patent US11820729B2 (Johnson & Johnson Consumer Inc., priority 2014, dated 2023)

What was measured:
[1] = tested on: 16-hour salivary biofilm on pellicle coated hydroxyapatite pegs; assay: Prevention assay: prevention of bacterial attachment to pellicle coated hydroxyapatite pegs, ATP bioluminescence; assay type: cell-based
Description: The formulations in Examples 2-4, 6, 8 and 9 were prepared and test for prevention of bacterial attachment using the prevention assay. In this assay hydroxyapatite-coated polystyrene peg plate (96 pegs, N=8 per group) was exposed to saliva for one minute to form a pellicle at a temperature of 35 C. Then, for each formulation, eight pegs (N=8) were pre-treated for ten minutes with the formulation using an orbital shaker set to 500 RPM at room temperature. As a negative control, eight pegs (N=8) were pre-treated for ten minutes with sterile water. Next, a 16-hour salivary biofilm was grown on these polystyrene peg plates at a temperature of 35 C.
After all treatments were complete, the biofilm from each peg was neutralized and rinsed. The biofilm was harvested via sonication using a Q-Sonica Q700 Ultrasonic Liquid Processor with 431MP4-00 microplate horn Damper and 0.5:1 reverse gain booster (Q-Sonica, Newtown, Conn.). Using a Celsis Rapid Detection RapiScreen kit (Celsis International PLC, Chicago, Ill.), the bacteria were lysed with Celsis Luminex and then the adenosine triphosphate (ATP) from the lysed bacteria was measured using the bioluminescence marker Celcis Luminate and a Centro LB 960 Microplate Luminometer supplied by Berthold Technologies (Wildbad, Germany). Data were reported in log RLU (relative light units) where decreasing log RLUs indicated fewer viable bacteria remained on the biofilm substrate. The log RLUs for the prevention assay are shown on Tables 2, 4, 6, 10, 14, and 16.

[2] = HPLC quantification of compound remaining after storage at 50° C.; assay type: physicochemical; settings: HPLC
Description: Briefly, formulations containing either LAE or any of the 26 compounds and standards are diluted into a solution of 50% acetonitrile and 50% water. They are evaluated on an Agilent HPLC using a Zorbax ion exchange column. In the method, 10 uL of the sample is withdrawn and ran through the HPLC with a 40% potassium phosphate (molarity at pH 3.0) 60% acetonitrile mobile phase. […] The molecule peak is auto integrated using the Online Agilent HPLC software. Comparisons are made to the standard to identify the % of compound remaining following storage.

S. mutans biofilm = assay: S. mutans single species kill assay (in-vitro biofilm model); assay type: cell-based; settings: simple solution formulas (Table 13), 30 second treatment
Description: The formulations listed in Example 7 were prepared and tested using an in-vitro single species S. mutans biofilm model. A 24-hour S. mutans biofilm is grown on a polystyrene peg plate (96 pegs, N=6 per test group). The pegs were subsequently treated for thirty seconds with each of formulations H and I, as well as positive and negative controls. The treatment is applied as a single thirty (30) second treatment. The positive control is a commercially available essential oil mouth rinse. The negative control is sterile water. After treatment the biofilm is neutralized and rinsed. The biofilm is harvested via sonication using a Misonix Ultrasonic Liquid Processor (Farmingdale, N.Y.). Using a Celsis Rapid Detection RapiScreen kit (Celsis International PLC, Chicago), the bacteria are lysed with Celsis Luminex and then the adenosine triphosphate (ATP) from the lysed bacteria is measured using the bioluminescence marker LB960 Microplate Luminometer supplied by Berthold (Wildbad, Germany). Data are reported in log RLU (relative light units) where decreasing log RLUs indicates fewer viable bacteria remaining on the biofilm substrate.

[3] = simple solution solvent base formulas (Table 11)

% of molecule maintained out to 8 weeks when stored at 50° C. ([2]; 8 weeks, 50° C., formulations of Table 7): at least 90% | stability in an alcohol-free formulation ([2]; storage at 50° C.): Maintains Stability
SMILES: CCCCCCCCCCCC(=O)NC(CCCNC(=N)N)C(=O)NCC (centres unmarked) [Compound 9, [amino({[4-dodecanamido-4-(ethylcarbamoyl)butyl]amino})methylidene]azanium]
effect of presence of essential oils (EOs) on prevention of bacterial attachment ([1]; 0.15 wt % compound 9, Table 6): has no effect | effect of surfactant on prevention of bacterial attachment ([1]; 0.15 wt % compound 9, Table 6): has a major effect | prevention of bacterial attachment in full formula ([1]; 0.15 wt % in alcohol free base, compositions K-R): Prevents Bacterial Attachment in Full Formula | efficacy at preventing bacterial attachment ([1]; 0.15 wt % in water): demonstrated efficacy at preventing bacterial attachment | prevention of bacterial attachment compared with LAE ([1]; 0.15 wt %, 21.6% alcohol and water-based solution): equally as efficacious as LAE | prevention of bacterial attachment in alcohol free full formulations ([1]; Table 15 formulations, water as the only solvent): Prevent Bacterial Attachment | prevention of bacterial attachment in alcohol-free full formulations ([1]; Table 17 formulations, water and propylene glycol as solvents): Prevent Bacterial Attachment | most effective concentration for prevention of bacterial attachment ([1]; compound 9 in simple water solution (Table 1 compositions)): 0.3 wt % | concentration effect on prevention of bacterial attachment ([1]; compound 9 in water, 0.01-0.4 w/w %): dose dependent response | ability to prevent bacterial attachment [1, 3]: have the ability to prevent bacterial attachment | preventing bacterial attachment the best [1, 3]: preventing bacterial attachment the best | log reduction in S. mutans (S. mutans biofilm): do not Result in More than a One Log Reduction in S. mutans
